According to the NIST ThermoML archive (doi:10.1016/j.jct.2015.11.009):
Numbers after ± are expanded uncertainties.

Columns and labels:
[1] = xn = mol fraction of the nth substance listed; conditions: 100 kPa, Liquid; for mass density: Vibrating tube method; for speed of sound: Frequency=3 MHz, Sing-around technique in a fixed-path interferometer
[2] = refractive index (Na D-line) (dimensionless); xn = mol fraction of the nth substance listed; conditions: 100 kPa, Liquid, Standard Abbe refractometry

O=C1CCCN1 [2-pyrrolidinone] + CCCCn1cc[n+](C)c1.F[B-](F)(F)F
Conditions	mass density, 318.15 K [kg/m3]	mass density, 323.15 K [kg/m3]	refractive index, 298.15 K	refractive index, 303.15 K	refractive index, 308.15 K	refractive index, 313.15 K	refractive index, 318.15 K	refractive index, 323.15 K	speed of sound, 323.15 K [m/s]
[1], x2 = 0	1090.82 ± 1	1086.75 ± 1	–	–	–	–	–	–	1553.5 ± 1.4
[1], x2 = 0.102	1113.15 ± 1.5	1109.21 ± 1.5	–	–	–	–	–	–	1550 ± 1.4
[1], x2 = 0.1951	1127.38 ± 1.5	1123.52 ± 1.5	–	–	–	–	–	–	1545.8 ± 1.5
[1], x2 = 0.3046	1139.83 ± 1.5	1136.08 ± 1.5	–	–	–	–	–	–	1539.4 ± 1.5
[1], x2 = 0.3886	1148.36 ± 1.5	1144.62 ± 1.5	–	–	–	–	–	–	1534.3 ± 1.5
[1], x2 = 0.5262	1158.47 ± 1.6	1154.82 ± 1.6	–	–	–	–	–	–	1528 ± 1.5
[1], x2 = 0.6185	1164.72 ± 1.6	1161.11 ± 1.6	–	–	–	–	–	–	1524 ± 1.6
[1], x2 = 0.69	1169.02 ± 1.6	1165.45 ± 1.6	–	–	–	–	–	–	1519.2 ± 1.6
[1], x2 = 0.7844	1174.23 ± 1.6	1170.66 ± 1.6	–	–	–	–	–	–	1514.2 ± 1.6
[1], x2 = 0.8861	1179.12 ± 1.6	1175.58 ± 1.6	–	–	–	–	–	–	1510.2 ± 1.6
[2], x2 = 0	–	–	1.48591 ± 0.00086	1.48403 ± 0.00086	1.48218 ± 0.00086	1.48033 ± 0.00086	1.47841 ± 0.00086	1.47649 ± 0.00086	–
[2], x2 = 0.102	–	–	1.47414 ± 0.0014	1.47243 ± 0.0014	1.47067 ± 0.0014	1.46895 ± 0.0014	1.46715 ± 0.0014	1.46522 ± 0.0014	–
[2], x2 = 0.1951	–	–	1.46433 ± 0.0013	1.46228 ± 0.0013	1.461 ± 0.0013	1.45929 ± 0.0013	1.45813 ± 0.0013	1.45533 ± 0.0013	–
[2], x2 = 0.3046	–	–	1.45472 ± 0.0012	1.45316 ± 0.0012	1.45161 ± 0.0012	1.44998 ± 0.0012	1.44832 ± 0.0012	1.44663 ± 0.0011	–
[2], x2 = 0.3886	–	–	1.4487 ± 0.0011	1.44722 ± 0.0011	1.44571 ± 0.0011	1.44418 ± 0.0011	1.44261 ± 0.0011	1.44099 ± 0.0011	–
[2], x2 = 0.5262	–	–	1.44033 ± 0.001	1.43885 ± 0.001	1.43737 ± 0.001	1.43589 ± 0.001	1.43436 ± 0.001	1.43282 ± 0.001	–
[2], x2 = 0.6185	–	–	1.43543 ± 0.001	1.43414 ± 0.001	1.43271 ± 0.00099	1.43125 ± 0.00099	1.42972 ± 0.00099	1.42817 ± 0.00098	–
[2], x2 = 0.69	–	–	1.43222 ± 0.00097	1.43084 ± 0.00097	1.42943 ± 0.00097	1.42805 ± 0.00096	1.42665 ± 0.00096	1.42522 ± 0.00096	–
[2], x2 = 0.7844	–	–	1.4283 ± 0.00095	1.42696 ± 0.00095	1.4256 ± 0.00095	1.4242 ± 0.00095	1.42286 ± 0.00095	1.42148 ± 0.00095	–
[2], x2 = 0.8861	–	–	1.42468 ± 0.00094	1.42338 ± 0.00094	1.42205 ± 0.00095	1.42069 ± 0.00095	1.41928 ± 0.00095	1.41788 ± 0.00095	–
